ChEMBL document CHEMBL2040842, “Synthesis and Biochemical Testing of 3-(Carboxyphenylethyl)imidazo[2,1-f][1,2,4]triazines as Inhibitors of AMP Deaminase” (ACS Med Chem Lett, 2010)

What was measured:
[1] = Inhibition of AMP deaminase
[2] = Inhibition of human recombinant AMPD2-1A/2 expressed in Sf9 cells
[3] = molecular target: AMP deaminase (Arabidopsis thaliana, UniProt O80452, V211M); assay: Inhibition of Arabidopsis recombinant AMPD deltaV211M mutant expressed in Sf9 cells
[4] = Inhibition of human recombinant AMPD1 deltaM54 mutant expressed in Sf9 cells
[5] = molecular target: T1, AMP deaminase 3 (Homo sapiens, UniProt Q01432); assay: Inhibition of human recombinant AMPD3-1b expressed in Sf9 cells
T1 sequence (Q01432 whole entry): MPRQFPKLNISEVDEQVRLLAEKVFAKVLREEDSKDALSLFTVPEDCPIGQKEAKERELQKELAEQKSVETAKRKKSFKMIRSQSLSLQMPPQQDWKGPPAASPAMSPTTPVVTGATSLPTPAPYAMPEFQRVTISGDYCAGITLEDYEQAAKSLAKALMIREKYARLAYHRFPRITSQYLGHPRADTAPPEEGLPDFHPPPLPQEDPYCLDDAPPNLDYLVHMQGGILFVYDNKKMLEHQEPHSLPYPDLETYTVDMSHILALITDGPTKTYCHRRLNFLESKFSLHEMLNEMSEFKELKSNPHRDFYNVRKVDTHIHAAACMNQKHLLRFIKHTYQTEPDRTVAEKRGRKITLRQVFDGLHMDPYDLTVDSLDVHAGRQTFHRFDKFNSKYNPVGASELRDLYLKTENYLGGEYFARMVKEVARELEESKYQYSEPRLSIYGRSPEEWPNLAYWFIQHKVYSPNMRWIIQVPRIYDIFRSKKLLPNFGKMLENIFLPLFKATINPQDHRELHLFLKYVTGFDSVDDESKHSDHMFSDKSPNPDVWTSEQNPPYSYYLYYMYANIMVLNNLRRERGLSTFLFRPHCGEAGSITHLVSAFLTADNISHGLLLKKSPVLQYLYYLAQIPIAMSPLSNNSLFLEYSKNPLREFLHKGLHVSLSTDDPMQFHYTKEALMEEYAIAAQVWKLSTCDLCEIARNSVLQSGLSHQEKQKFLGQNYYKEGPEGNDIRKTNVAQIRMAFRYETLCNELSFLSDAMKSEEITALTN

[6] = molecular target: T2, AMP deaminase 1 (Homo sapiens, UniProt P23109); assay: Inhibition of human skeletal muscle AMPD1; design: species or system Muscle tissue
T2 sequence (P23109 whole entry): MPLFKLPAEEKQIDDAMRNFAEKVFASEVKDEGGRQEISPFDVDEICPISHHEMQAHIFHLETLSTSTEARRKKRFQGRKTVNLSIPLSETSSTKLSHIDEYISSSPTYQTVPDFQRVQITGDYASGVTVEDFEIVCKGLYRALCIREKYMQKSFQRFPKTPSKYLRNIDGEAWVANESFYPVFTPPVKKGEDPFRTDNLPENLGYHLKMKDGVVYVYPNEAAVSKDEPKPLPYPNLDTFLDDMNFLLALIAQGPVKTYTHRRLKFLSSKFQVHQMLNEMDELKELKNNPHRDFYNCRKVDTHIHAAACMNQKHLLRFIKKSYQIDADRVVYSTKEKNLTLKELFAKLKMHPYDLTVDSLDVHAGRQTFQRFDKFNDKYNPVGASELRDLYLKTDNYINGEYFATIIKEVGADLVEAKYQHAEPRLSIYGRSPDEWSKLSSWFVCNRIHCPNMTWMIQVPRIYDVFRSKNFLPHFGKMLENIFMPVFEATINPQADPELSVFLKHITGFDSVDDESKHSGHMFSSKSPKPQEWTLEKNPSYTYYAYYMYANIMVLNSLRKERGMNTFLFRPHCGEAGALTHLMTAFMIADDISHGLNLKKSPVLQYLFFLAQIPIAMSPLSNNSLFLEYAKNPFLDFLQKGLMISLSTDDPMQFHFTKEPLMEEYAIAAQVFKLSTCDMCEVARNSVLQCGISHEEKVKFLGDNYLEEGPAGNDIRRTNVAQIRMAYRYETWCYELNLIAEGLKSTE

[7] = Inhibition of porcine heart AMPD3; design: species or system Sus scrofa

AMP deaminase, sequence (O80452 whole entry V211M): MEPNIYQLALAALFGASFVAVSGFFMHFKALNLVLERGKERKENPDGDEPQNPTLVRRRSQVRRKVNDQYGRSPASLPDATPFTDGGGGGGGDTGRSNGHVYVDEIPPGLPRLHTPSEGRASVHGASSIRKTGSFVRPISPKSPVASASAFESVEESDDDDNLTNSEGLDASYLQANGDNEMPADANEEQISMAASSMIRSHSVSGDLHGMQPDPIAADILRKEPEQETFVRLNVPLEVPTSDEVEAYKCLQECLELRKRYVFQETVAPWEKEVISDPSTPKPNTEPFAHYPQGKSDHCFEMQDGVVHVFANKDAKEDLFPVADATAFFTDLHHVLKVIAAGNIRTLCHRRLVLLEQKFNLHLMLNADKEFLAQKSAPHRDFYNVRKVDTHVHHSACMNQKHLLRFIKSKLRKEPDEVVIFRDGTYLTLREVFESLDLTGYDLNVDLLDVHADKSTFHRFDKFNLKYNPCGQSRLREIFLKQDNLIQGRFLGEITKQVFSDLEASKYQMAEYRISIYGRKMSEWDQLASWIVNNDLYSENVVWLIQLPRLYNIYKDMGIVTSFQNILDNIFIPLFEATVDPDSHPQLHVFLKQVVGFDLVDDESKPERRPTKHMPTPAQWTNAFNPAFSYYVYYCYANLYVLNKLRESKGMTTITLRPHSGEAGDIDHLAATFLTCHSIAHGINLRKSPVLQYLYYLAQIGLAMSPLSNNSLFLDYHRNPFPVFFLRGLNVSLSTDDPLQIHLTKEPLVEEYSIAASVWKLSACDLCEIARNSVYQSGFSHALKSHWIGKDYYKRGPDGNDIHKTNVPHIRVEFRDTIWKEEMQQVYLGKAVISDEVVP

| SMILES | IC50 [2] [µM] | IC50 [3] [µM] | IC50 [4] [µM] | IC50 [5] [µM] | further results |
| --- | --- | --- | --- | --- | --- |
| O=P(O)(O)OC[C@H]1O[C@@H](n2cnc3c2N=CNC[C@H]3O)[C@H](O)[C@@H]1O |  |  |  |  | Ki [1]: 5.5 pM |
| O=C(O)c1cccc(CCc2cnc3cncnn23)c1 | 100 | 1400 | 310 | 370 |  |
| O=C(O)c1cc2c(c(CCc3cnc4cncnn34)c1)CCCC2 | 2.3 | 200 | 5.7 | 0.9 |  |
| O=C(O)c1cc(CCn2cnc3c2N=CNCC3O)c2c(c1Br)CCCC2 (stereo unspecified) |  |  |  |  | IC50 [6]: 0.5 µM |
| O=C(O)c1cccc(CCn2cnc3c2NC=NCC3O)c1 (stereo unspecified) |  |  |  |  | Ki [7]: 0.51 µM |
